The values below come from paper PMC8155176, “Reversible modulation of circadian time with chronophotopharmacology” (Nature Communications, 2021).

Data set [1] has as its system U2OS cells. In words: Circadian phase control in U2OS reporter cells. It counts as cell-based, human. An excerpt:
Hypothetically, a transient change in period will lead to a phase change, consequently providing a relevant approach to jetlag treatment. Therefore, we applied visible-light responsive modulator 9 to control the circadian phase (Fig. 7). The compound was initially irradiated with green light for inactivation (cis-enriched 9, Fig. 7a, timepoint A) and applied to U2OS cells for luminescence rhythm measurement. On the next day, the cells were irradiated with violet light for compound activation or kept in dark (Fig. 7a, timepoint B).
Fig. 7 Circadian phase control using chronophotopharmacology. Green light (λmax = 530 nm)-irradiated compound 9 was applied to U2OS cells at 0 h (A). On the next day (B), the cells were irradiated with violet light (λmax = 400 nm) for 0 min (black and green lines), 10 min (light violet line), or 20 min (dark violet line). After 48 h or 72 h (C), the cells were irradiated with green light (λmax = 530 nm) for 0 min (black line) or 30 min (green, light violet, and dark violet lines). Luminescence rhythm profiles (average of n = 6) are shown in a. […] Luminescence is given in arbitrary units. n = 6 biologically independent samples. […]
Stable U2OS reporter cells harboring Bmal1-dLuc reporter were suspended in phenol red-free culture medium [DMEM (D2902, Sigma) supplemented with 10% fetal bovine serum, 3.5 mg/mL D-glucose, 3.7 mg/mL sodium bicarbonate, 0.29 mg/mL L-glutamine, 100 units/mL penicillin, and 100 µg/mL streptomycin] and plated onto a white, solid-bottom 384-well plates at 30 µL (3000 cells) per well. […] Luminescence was recorded every 100 min in a microplate reader, Infinite M200Pro (Tecan). For the phase control experiments, cellular light irradiation was performed in a dark 32 °C room and luminescence was recorded in a microplate reader Synergy H1 (BioTek) placed in the same room, to avoid possible effect of transient temperature change on the phase. Circadian period and phase were determined from luminescence rhythms by a curve fitting program MultiCycle (Actimetrics). […]

A short description of data set [2]: Chemical stability under dark and irradiation conditions followed by LCMS. In kind it is physicochemical. To be noted: 40 µM in kinase assay buffer or cell culture medium, dark, 365 nm 3 h, 400 nm 30 min. The method, then: LCMS traces of stability studies
Supplementary Figure 8. Chemical stability of compound 3 under dark and irradiation conditions followed by LCMS. All the samples were prepared as 40 µM solution in buffer or cell culture medium. ‘Buffer’ and ‘medium’ samples were injected immediately upon dissolving compound 3, ‘buffer_3h_dark’ was injected after 3 h of keeping the solution in dark, ‘buffer_3h_365nm’ after irradiation of the sample for 3 h with UV light in kinase assay buffer, and ‘medium_30min_400nm’ after 30 min of irradiation with 400 nm in cell culture medium. The trans-isomer was followed at the retention time of 10.41-10.47 min and the cis-isomer at the retention time of 8.84-8.90 min. Mass spectra of both isomers in different […]
(1 picture or pasted object on this page, not shown here)

A short description of data set [3]: Fatigue on repeated photoisomerization cycles. It counts as physicochemical. As to the method: Upon reaching PSS distribution with green light, thermal back-isomerization was followed in the dark for 14 h (gray background). After this period, violet light was applied (violet rectangle) for 8 min to confirm the presence of the remaining cis-isomer and estimate cis-to-trans ratio. Green light allowed for switching to the cis-isomer once again (green rectangle), showing that in situ isomerization is possible. c Reversible photochromism in cell culture medium followed at 312 nm absorbance. […] The thermally adapted sample is shown in black (dark), irradiated with green light in vitro (pre-incubation, shown in green), with violet light in cellulo (post-incubation, shown in gray), and with green light in vitro followed by violet light in cellulo in purple. The control experiment with longdaysin is also shown. Luminescence rhythm profiles and data for DMSO-treated cells are shown in Supplementary Figs. 25 and 26, respectively. Luminescence is given in arbitrary units. n = 3 biologically independent samples for the CKIα enzymatic assay (d), n = 2 biologically independent samples for the CKIδ enzymatic assay (d), and n = 3 biologically independent samples for the cellular assay (e). […]
Supplementary Figure 30. […] The spectrum is measured at pH 7.4 (0.1 mM in water) and in presence of 0.1 mM concertation of luciferin. […]

“Also recorded” adds a separate entry of the source.

Consider `CC(C)n1cnc2c(NCc3ccc(F)c(/N=N/c4c(F)cccc4F)c3F)ncnc21` [Compound 9], for which the “period after green light reversal” value in data set [1] (after time point C) is reported as “returned to normal”. The “phase delay compared with dark samples, 48 h condition” value in data set [1] (violet light activation, reversed by green light after 48 h) was 2 h. The “phase delay compared with dark samples, 72 h condition” value in data set [1] (violet light activation, reversed by green light after 72 h) was found to be 4 h. The “chemical stability (reduction or oxidation of the azo group)” value in data set [2] was “Products of reduction or oxidation were not”. For the same compound, the “fatigue upon repeated illumination cycles” value in data set [3] is reported as “very low fatigue; also recorded: Almost no fatigue”.
As to `Cc1nn(C)c(C)c1/N=N/c1cccc(CNc2ncnc3c2ncn3C(C)C)c1` [Compound 8], the “chemical stability (reduction or oxidation of the azo group)” value in data set [2] is reported as “Products of reduction or oxidation were not observed; also recorded: no observable reduction or oxidation”. Further, the “fatigue upon repeated illumination cycles” value in data set [3] is reported as “low fatigue”.
